What was measured:
[1] = target: Sodium-dependent noradrenaline transporter (Homo sapiens, UniProt P23975); assay: DRUGMATRIX: Norepinephrine Transporter radioligand binding (ligand: [125I] RTI-55); assay type: cell membranes, MDCK, Membrane; conditions: Not Active = under 50% inhibition at 10 µM
[2] = DRUGMATRIX: Imidazoline I2, Central radioligand binding (ligand: [3H] Idazoxan); assay type: cell membranes, Rattus norvegicus, Wistar, Cerebral cortex, Membrane; conditions: Not Active = under 50% inhibition at 10 µM
Interstitial collagenase = target: T1, Interstitial collagenase (Homo sapiens, UniProt P03956); assay: biochemical; assay type: tissue-based, Rheumatoid synovial fibroblasts;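 also: MMP-1 enzyme inhibition assay using a peptide substrate; in other assays of this panel Not Active means under 50% inhibition at 10 µM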
T1 sequence (P03956 whole entry): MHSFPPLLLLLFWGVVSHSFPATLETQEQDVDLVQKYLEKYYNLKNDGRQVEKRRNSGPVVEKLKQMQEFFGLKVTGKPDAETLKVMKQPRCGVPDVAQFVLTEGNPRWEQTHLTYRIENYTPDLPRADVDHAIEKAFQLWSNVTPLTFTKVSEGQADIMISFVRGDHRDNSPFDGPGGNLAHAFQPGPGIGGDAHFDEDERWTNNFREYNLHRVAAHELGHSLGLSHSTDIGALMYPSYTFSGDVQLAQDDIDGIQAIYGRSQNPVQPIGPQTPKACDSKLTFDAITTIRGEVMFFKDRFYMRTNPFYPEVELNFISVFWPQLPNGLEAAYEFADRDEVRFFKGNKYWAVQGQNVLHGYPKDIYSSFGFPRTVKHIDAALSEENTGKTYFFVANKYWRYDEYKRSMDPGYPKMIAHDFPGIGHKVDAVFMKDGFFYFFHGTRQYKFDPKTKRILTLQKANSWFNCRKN

[3] = DRUGMATRIX: Potassium Channel [KATP] radioligand binding (ligand: [3H] Glyburide); assay type: cell membranes, Membrane; conditions: hit-t15; Not Active = under 50% inhibition at 10 µM
Calcitonin receptor = target: T2, Calcitonin receptor (Homo sapiens, UniProt P30988); assay type: cell membranes, Membrane; conditions: t47d; also: in other assays of this panel Not Active means under 50% inhibition at 10 µM
T2 sequence (P30988 whole entry): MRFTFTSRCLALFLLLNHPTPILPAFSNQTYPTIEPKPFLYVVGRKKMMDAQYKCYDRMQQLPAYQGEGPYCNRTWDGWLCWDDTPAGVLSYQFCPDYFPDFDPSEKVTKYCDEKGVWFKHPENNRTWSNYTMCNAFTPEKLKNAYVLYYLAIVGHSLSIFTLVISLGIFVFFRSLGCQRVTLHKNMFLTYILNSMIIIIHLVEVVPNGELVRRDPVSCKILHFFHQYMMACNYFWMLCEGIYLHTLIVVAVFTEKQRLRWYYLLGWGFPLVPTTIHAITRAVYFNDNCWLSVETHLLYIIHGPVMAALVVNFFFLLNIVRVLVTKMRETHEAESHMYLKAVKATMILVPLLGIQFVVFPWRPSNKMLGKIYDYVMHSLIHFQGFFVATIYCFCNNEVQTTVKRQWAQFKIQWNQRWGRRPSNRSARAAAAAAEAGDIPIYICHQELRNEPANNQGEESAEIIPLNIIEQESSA

[4] = DRUGMATRIX: Platelet-Derived Growth Factor (PDGF) radioligand binding (ligand: [125I] PDGF); assay type: cell-based; conditions: nih3t3; Not Active = under 50% inhibition at 10 µM

Sodium-dependent noradrenaline transporter, sequence (P23975 whole entry): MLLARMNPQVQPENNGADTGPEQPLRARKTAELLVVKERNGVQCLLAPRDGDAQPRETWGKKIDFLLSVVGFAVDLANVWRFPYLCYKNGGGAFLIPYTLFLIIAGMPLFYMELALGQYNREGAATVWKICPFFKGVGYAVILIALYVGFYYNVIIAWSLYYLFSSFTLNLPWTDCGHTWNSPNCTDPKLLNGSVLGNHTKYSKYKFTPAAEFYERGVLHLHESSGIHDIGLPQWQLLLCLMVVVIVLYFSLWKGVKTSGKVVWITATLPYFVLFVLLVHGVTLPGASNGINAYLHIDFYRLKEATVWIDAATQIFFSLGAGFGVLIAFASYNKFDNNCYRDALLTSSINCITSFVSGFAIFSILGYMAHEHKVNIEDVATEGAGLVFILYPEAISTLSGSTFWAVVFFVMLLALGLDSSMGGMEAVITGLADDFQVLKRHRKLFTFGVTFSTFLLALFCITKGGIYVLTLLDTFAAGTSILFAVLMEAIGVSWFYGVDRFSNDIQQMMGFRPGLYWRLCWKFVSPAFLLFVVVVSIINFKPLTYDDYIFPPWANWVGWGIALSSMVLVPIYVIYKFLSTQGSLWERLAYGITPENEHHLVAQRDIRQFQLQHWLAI

Compound | IC50 ([1]; read-out: IC50) | Ki ([1]; read-out: Ki) | IC50 ([2]; read-out: IC50) | Ki ([2]; read-out: Ki) | IC50 (Interstitial collagenase) | IC50 [3] | Ki [3] | IC50 (Calcitonin receptor) | IC50 [4] | Ki [4] | IC50 ([1]; mdck) | IC50 [2] | Ki [2] | Ki ([1]; mdck) | Ki (Interstitial collagenase) | Ki (Calcitonin receptor)
CCN(CC)CCCC(C)Nc1c2ccc(Cl)cc2nc2ccc(OC)cc12 (stereo unspecified) [QUINACRINE] | 2900 nM | 2870 nM | 1520 nM | 1010 nM | Not Active | Not Active | Not Active | Not Active | Not Active | Not Active | – | – | – | – | – | –
C[C@]12C=CC(=O)C=C1CC[C@H]1[C@@H]3C[C@@H](O)[C@](O)(C(=O)CO)[C@@]3(C)C[C@H](O)[C@@]12F [TRIAMCINOLONE] | – | – | – | – | Not Active | Not Active | Not Active | Not Active | Not Active | Not Active | Not Active | Not Active | Not Active | – | – | –
CC[C@]1(O)C[C@@H]2CN(CCc3c([nH]c4ccccc34)[C@@](C(=O)OC)(c3cc4c(cc3OC)N(C)[C@H]3[C@@](O)(C(N)=O)[C@H](O)[C@]5(CC)C=CCN6CC[C@]43[C@@H]65)C2)C1 [VINDESINE] | – | – | – | – | Not Active | Not Active | Not Active | Not Active | Not Active | Not Active | Not Active | Not Active | Not Active | – | – | –
CCN(C(C)=O)c1cccc(-c2ccnc3c(C#N)cnn23)c1 [ZALEPLON] | – | – | – | – | Not Active | Not Active | Not Active | Not Active | Not Active | Not Active | Not Active | Not Active | Not Active | – | – | –
COBALTOUS CHLORIDE | – | – | – | – | Not Active | Not Active | Not Active | Not Active | Not Active | Not Active | Not Active | Not Active | Not Active | Not Active | Not Active | Not Active
COLISTIN | – | – | – | – | Not Active | Not Active | Not Active | Not Active | Not Active | Not Active | Not Active | Not Active | Not Active | Not Active | Not Active | Not Active

From ChEMBL document CHEMBL1909046, “DrugMatrix in vitro pharmacology data”
